The values below come from patent US5270319A, “5-hydroxy-2-pyrimidinylmethylene derivatives useful as antiinflammatory agents” (Warner-Lambert Company, priority 1992, dated 1993).

One test concerns the target T1, 5-Lipoxygenase (Rattus norvegicus, UniProt P12527).
T1 construct: host or cells: RBL-1 (rat basophilic leukemia)
T1 sequence (P12527 1-673): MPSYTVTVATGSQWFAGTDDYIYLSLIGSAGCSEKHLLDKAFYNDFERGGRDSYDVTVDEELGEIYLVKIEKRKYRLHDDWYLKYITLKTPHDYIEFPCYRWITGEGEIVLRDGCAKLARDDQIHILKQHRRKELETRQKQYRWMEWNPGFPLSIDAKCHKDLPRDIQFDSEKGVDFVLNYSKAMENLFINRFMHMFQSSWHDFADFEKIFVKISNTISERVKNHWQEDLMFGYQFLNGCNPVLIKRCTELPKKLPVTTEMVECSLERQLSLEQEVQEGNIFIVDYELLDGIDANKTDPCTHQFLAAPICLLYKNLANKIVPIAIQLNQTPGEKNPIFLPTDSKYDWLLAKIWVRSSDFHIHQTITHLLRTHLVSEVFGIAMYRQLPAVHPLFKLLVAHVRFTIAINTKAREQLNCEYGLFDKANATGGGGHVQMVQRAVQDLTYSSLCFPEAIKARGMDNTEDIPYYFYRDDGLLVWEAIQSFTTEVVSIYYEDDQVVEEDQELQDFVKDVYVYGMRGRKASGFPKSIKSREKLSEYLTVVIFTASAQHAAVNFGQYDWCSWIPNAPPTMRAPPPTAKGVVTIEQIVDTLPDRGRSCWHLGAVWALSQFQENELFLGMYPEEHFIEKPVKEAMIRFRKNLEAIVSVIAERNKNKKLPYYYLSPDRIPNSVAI
Briefly: ARBL whole cell 5-lipoxygenase assay (LTB4 formation in RBL-1 cells). It counts as cell-based. The note with it: A23187 (5 μM) stimulated, LTB4 formation by RIA, read-out: % Inhibition at 10 μM Conc, ARBL. As to the method: (§1) A description of each procedure follows. ARBL/ARBC Whole Cell 5-Lipoxygenase and Cyclooxygenase Assays The rat basophilic leukemia cell line (RBL-1) was obtained from the American Type Culture Collection (Rockville, Md.). Radioimmunoassay (RIA) kits of LTB4 and PGF2α were obtained from Amersham (Arlington Heights, Ill.) and Seragen (Boston, Mass.), respectively. All tissue culture media were obtained from GIBCO (Grand Island, N.Y.). RBL-1 cells are grown in suspension culture in Eagle's minimum essential medium supplemented with 12% fetal bovine serum at 37° C. in an incubator supplied with air-5% carbon dioxide. Cells are harvested by centrifugation. They are washed with cold phosphate buffered saline pH 7.4 (PBS; NaCl, 7.1 g; NaHPO, 1.15 g; KHPO, 0.2 g; and KCl, 0.2 g/l). Cells are finally suspended in PBS containing 1.0 mM calcium at a density of […] cells/ml. Cells are incubated with and without test agent (in DMSO) (1% DMSO is without effect on arachidonic acid metabolism) for ten minutes at room temperature. Calcium ionophore A23187 (5 μM) is added and cells are incubated for seven minutes at 37° C. The reaction is stopped by chilling the tubes on ice for ten minutes. Cells are separated by centrifugation and the supernatant is stored at […]. Aliquots (100 μL) are analyzed for LTB4 and PGF2α using radioimmunoassay kits as provided by the supplier. Biochemical data obtained from this whole cell assay may be shown as IC50 s which are calculated as the amount of test compound causing 50% inhibition of LTB4 or PGF2α formation. The following Table exemplifies the data for the present invention.

The next test deals with Cyclooxygenase. Briefly: ARBC whole cell cyclooxygenase assay (PGF2α formation in RBL-1 cells). It counts as cell-based, rat. The following applies: A23187 (5 μM) stimulated, PGF2α formation by RIA. As to the method: as §1

As to `CC(C)(C)c1nc(C=C2SC(=S)NC2=O)nc(C(C)(C)C)c1O` [Example 6, 5-[[4,6-Bis-(1,1-dimethylethyl)-5-hydroxy-2-pyrimidinyl]methylene]-2-thioxo-4-thiazolidinone], on 5-Lipoxygenase, the inhibition at 10 µM amounted to 91%. In addition, the “% Inhibition at 10 μM Conc, ARBC” value with Cyclooxygenase stood at 81%.
For `CC(C)(C)c1nc(C=C2SC(=N)NC2=O)nc(C(C)(C)C)c1O` [Example 7, 5-[[4,6-Bis-(1,1-dimethylethyl]-5-hydroxy-2-pyrimidinyl]methylene]-2-imino-4-thiazolidinone], in that order: 32% and 56%.
Regarding `CC(C)(C)c1nc(C=C2SC(=O)NC2=O)nc(C(C)(C)C)c1O` [Example 8], the inhibition at 10 µM on 5-Lipoxygenase came to 60%. The “% Inhibition at 10 μM Conc, ARBC” value in the test with Cyclooxygenase turned out to be 68%.
`CON1CCC(=Cc2nc(C(C)(C)C)c(O)c(C(C)(C)C)n2)C1=O` [Example 15, 3-[[4,6-Bis-(1,1-dimethylethyl)-5-hydroxy-2-pyrimidinyl]methylene]-N-methoxy-pyrrolidin-2-one]: the inhibition at 10 µM at 5-Lipoxygenase came to 46%. The “% Inhibition at 10 μM Conc, ARBC” value with Cyclooxygenase turned out to be 88%.
For `CC(C)(C)c1nc(C=C2CCOC2=O)nc(C(C)(C)C)c1O` [Example 16], in that order: 100% and 93%.
